Reference: paper PMC10206040, “Identification of novel anti-amoebic pharmacophores from kinase inhibitor chemotypes” (Frontiers in Microbiology, 2023)
Like-named read-outs stand apart in the source and are kept apart here.

What was measured:
[1] = Human fetal lung fibroblast (MRC5) cell cytotoxicity assay (resazurin); conditions: human
Method: (§1) Intermediate plates were made as described, adding 95 μL of DMEM complete media to 5 μL of compound per well setting a 5% DMSO amount. Log-phase MRC5 cells were removed from a T-75 TC flask using TrypLE® Express (Thermo®) and dispersed by gentle pipetting. Cell density was adjusted to working concentration in prewarmed DMEM medium: 25,000 cells in 90 μL of culture were plated in 96-well transparent Nunclon plates and allowed to settle for 24 h at 37°C and 5% CO2. […] Plates were incubated for 48 h at 37°C and 5% CO2. At 4 h prior to fluorescence measurement, 20 μL of 500 μM resazurin solution was added.
(§2) A four-parameter equation was used to fit the dose–response curves and determination of EC50 by SigmaPlot ® 13.0 software. Assays were performed in duplicate at least twice for positive compounds, to achieve a minimal […] per dose response.

[2] = tested on: Naegleria fowleri (ATCC 30215) trophozoites; experiment: microbe, parasite or virus in culture
Method: Trophozoites were routinely grown axenically at 34°C, 5% CO2, in Nelson’s complete medium (NCM) in non-vented 75 cm^2 tissue culture flasks (Olympus), until the cells were 80–90% confluent. For sub-culturing, cells were placed on ice to detach the cells from the culture flasks. […] Complete NCM media is prepared by the addition of 10% fetal bovine serum (FBS) and 100 U/mL penicillin, and 100 μg/mL streptomycin antibiotics.
Trophozoites were routinely cultured as described above and only logarithmic trophozoites were used.
All assays were incubated at each of the parasites’ representative growth temperatures, described above, for 72 h. At the 72-h time point, 25 μL of CellTiter-Glo 2.0 reagent was added to all wells of the 96-well plates by hand. The plates were protected from light and contents were mixed using an orbital shaker at 300 rpm at room temperature for 2 min to induce cell lysis. After shaking, the plates were equilibrated at room temperature for 10 min to stabilize the luminescent signal. The ATP luminescent signal (relative light units; RLUs) were measured […] with a SpectraMax I3X plate reader (Molecular Devices, Sunnyvale, CA, United States). […] Values reported are from a minimum of three biological replicates with standard deviation.

[3] = tested on: Acanthamoeba castellanii T4 isolate (ATCC 50370) trophozoites; experiment: CellTiter-Glo 2.0 trophocidal assay, A. castellanii; assay type: cell-based; conditions: read-out: Acanthamoeba castellanii EC50 ± SD
Excerpt: This isolate was purchased from American Type Culture Collection (ATCC). […] For sub-culturing, cells were mechanically harvested to detach the cells from the culture flasks.

[4] = tested on: Balamuthia mandrillaris (CDC:V039; ATCC 50209) trophozoites; experiment: CellTiter-Glo 2.0 trophocidal assay, B. mandrillaris; assay type: cell-based; conditions: Balamuthia mandrillaris, ATCC50209, 72 h, read-out: Balamuthia mandrillaris EC50 ± SD
Excerpt: For sub-culturing, 0.25% Trypsin–EDTA (Gibco) cell detachment reagent was used to detach the cells from the culture flasks.

[5] = tested on: MRC5 cells; experiment: Human fetal lung fibroblast (MRC5) cell cytotoxicity assay (resazurin); conditions: Table S2
Method: as §1, §2

[6] = tested on: L6 cells; experiment: Rat skeletal muscle cell line (L6) cytotoxicity assay (resazurin); conditions: Table S2; in µM
Method: One hundred microliters (100 μL) per well of culture medium containing the compounds and controls were added to L6 cells previously cultured (4 × 10^3 L6 cells per well). After 72 h at 37°C the medium was exchanged, and the viable cell number was determined by resazurin (Sigma–Aldrich) reduction. 20 μl of resazurin (1.1 mg/ml) was added to each well and incubated in the dark for 2 h at 37°C.

[7] = tested on: THP-1; experiment: Cytotoxicity assay in THP-1 (MTT); assay type: cell-based; conditions: Table S2, 72 h, maximal concentration 50 μM
Method: Cytotoxicity assay in TH P-1. Cellular toxicity of all compounds was determined using the colorimetric MTT-based assay after incubation at 37 °C for 72 h in the presence of increasing concentrations of compounds (final maximal concentration was 50 μM in 0.5% DMSO per well) [ 1] . The results are expressed […]
cells. Assays were performed in duplicate at least twice to achieve a minimal n=3 per dose response. […]
Cytotoxicity assay in THP-1. Cellular toxicity of all compounds was determined using the colorimetric MTT-based assay after incubation at 37 °C for 72 h in the presence of increasing concentrations of compounds (final maximal concentration was 50 μM in 0.5% DMSO per well). […] Assays were performed in duplicate at least twice to achieve a minimal n=3 per dose response.

[8] = MRC5 cells (human fetal lung fibroblasts)
[9] = Naegleria fowleri, 72 h, read-out: Naegleria fowleri EC50 ± SD, logarithmic trophozoites, 72 h, n = 3 (converted)
[10] = Acanthamoeba castellanii, ATCC50370, 72 h
[11] = read-out: Naegleria fowleri EC50 ± SD, logarithmic trophozoites, 72 h, n = 3
[12] = Naegleria fowleri, ATCC30215, 72 h, read-out: Naegleria fowleri EC50 ± SD, logarithmic trophozoites, 72 h, n = 3 (converted)
[13] = Acanthamoeba castellanii, ATCC50370, 72 h, logarithmic trophozoites, 72 h, n = 3
[14] = logarithmic trophozoites, 72 h, n = 3

| Compound | CC50 at 48 h [1, 8] [µM] | EC50 [2, 9] [µM] | EC50 [4] [µM] | EC50 [2, 12] [µM] | MRC5 TC50 ± Standard Deviation [5] [µM] | also measured |
| --- | --- | --- | --- | --- | --- | --- |
| c1ccc(Nc2nccc(-c3cnn4ccccc34)n2)cc1 [Compound 2a] | > 50 | 0.94 ± 0.17 | 4.2 ± 0.6 | – | – | EC50 [3, 10]: 13 ± 6.9 µM |
| N#Cc1cccc(Nc2nccc(-c3c(C4CC4)nn4nc(N5CCOCC5)ccc34)n2)c1 [Compound 2c] | > 50 | 3.5 ± 0.7 | – | – | – | EC50 [3, 10]: 5.9 ± 0.17 µM |
| Cc1cc(-c2cnn3ncccc23)nc(Nc2cccc(C#N)c2)n1 [Compound 2e] | > 50 | – | – | – | – | EC50 [3, 10]: > 20 µM |
| N#Cc1cccc(Nc2cccc(-c3cnn4ncccc34)n2)c1 [Compound 2f] | > 50 | – | > 20 | – | – | EC50 [3, 10]: > 20 µM |
| N#Cc1cccc(Nc2cccc(-c3cnn4ncccc34)c2)c1 [Compound 2g] | 19 ± 1 | – | > 20 | – | – | EC50 [3, 10]: > 20 µM |
| COc1cccc(Nc2nccc(-c3cnn4ccccc34)n2)c1 [Compound 2h] | > 50 | – | 3.3 ± 0.97 | – | – | – |
| COc1ccc(-c2nn3ncccc3c2-c2ccnc(Nc3ccccc3)n2)cc1 [Compound 2i] | > 50 | 17 ± 3.5 | – | – | – | – |
| COc1cccc(Nc2nccc(-c3cnn4nc(N5CCOCC5)ccc34)n2)c1 [Compound 2j] | > 50 | – | 4.9 ± 1.6 | – | – | – |
| OC1CCC(Nc2nccc(-c3cnn4nc(N5CCOCC5)ccc34)n2)CC1 (centres unmarked) [Compound 2k] | > 50 | ≤ 14 | > 20 | – | – | EC50 [2, 11]: 7.5 ± 2.5 µM |
| COCc1nn2ncccc2c1-c1ccnc(Nc2cccc(C#N)c2)n1 [Compound 2l] | > 50 | – | – | – | – | EC50 [2, 11]: ≤ 14 µM; EC50 ([2]; read-out: Naegleria fowleri EC50 ± SD, logarithmic trophozoites, 72 h, n = 3, listed as 2 l): 1.1 ± 0.16 µM |
| CC(O)c1nn2ncccc2c1-c1ccnc(Nc2cccc(C#N)c2)n1 (centres unmarked) [Compound 2m] | > 50 | 17 ± 0.76 | – | – | – | – |
| CC(C)c1nn2ncccc2c1-c1ccnc(Nc2cccc(C#N)c2)n1 [Compound 2n] | 33 ± 2 | 1.3 ± 0.33 | – | – | – | – |
| N#Cc1cccc(Nc2nccc(-c3c(C4CC4)nn4ncccc34)n2)c1 [Compound 2o] | > 50 | 9.6 ± 6.6 | – | – | – | – |
| c1cnn2ncc(-c3ccnc(NC4CCCCC4)n3)c2c1 [Compound 2p] | > 50 | 1.4 ± 0.76 | 7.5 ± 3.1 | – | – | – |
| Fc1ccc(Nc2nccc(-c3c(C4CC4)nn4ncccc34)n2)cc1F [Compound 2q] | – | – | – | 12 ± 7.8 | – | MRC5 TC50 ± Standard Deviation ([5]; in µM): > 50; CC50 at 48 h [1]: > 50 µM |
| c1cncc(Nc2nccc(-c3c(C4CC4)nn4ncccc34)n2)c1 [Compound 2r] | > 50 | 16 ± 3.7 | 13 ± 7.5 | – | – | – |
| COc1ccc2c(-c3ccnc(NC4CCC(O)CC4)n3)cnn2n1 (centres unmarked) [Compound 2s] | > 50 | – | 11 ± 4.2 | – | – | – |

| Compound | CC50 at 48 h [1, 8] [µM] | EC50 [2, 9] [µM] | EC50 [4] [µM] | EC50 [2, 12] [µM] | MRC5 TC50 ± Standard Deviation [5] [µM] | also measured |
| --- | --- | --- | --- | --- | --- | --- |
| c1ccc(Nc2nccc(-c3cnn4ncccc34)n2)nc1 [Compound 2t] | > 50 | – | 10 ± 2.8 | – | – | – |
| COc1ccc2c(-c3ccnc(NC4CCC(O)CC4)n3)c(C3CC3)nn2n1 (centres unmarked) [Compound 2u] | > 50 | – | 9.4 ± 3.4 | – | – | – |
| Nc1c(-c2ccccn2)nc2cc(F)ccn12 [Compound 3a, 7-Fluoro-2-(pyridin-2-yl)imidazo[1,2-a]pyridin-3-amine] | – | – | – | 15 ± 4.7 | 64 | EC50 [3, 13]: < 10 µM; EC50 [3, 14]: 6.94 ± 0.11 µM |
| COc1ccn2c(Nc3ccccc3F)c(-c3cnn(C)c3)nc2c1 [Compound 3b, N-(2-Fluorophenyl)-7-methoxy-2-(1-methyl-1H-pyrazol-4-yl)imidazo[1,2-a]pyridin-3-amine] | – | – | – | 13 ± 6.7 | 64 | – |
| COc1ccn2c(Nc3ccccc3F)c(-c3cccc(C)n3)nc2c1 [Compound 3c, N-(2-Fluorophenyl)-7-methoxy-2-(6-methylpyridin-2-yl)imidazo[1,2-a]pyridin-3-amine] | – | – | – | > 20 | 64 | EC50 [3, 13]: > 20 µM |
| Fc1ccn2c(NC3CC3)c(-c3ccccn3)nc2c1 [Compound 3d, N-Cyclopropyl-7-fluoro-2-(pyridin-2-yl)imidazo[1,2-a]pyridin-3-amine] | – | – | – | > 20 | 64 | EC50 [3, 13]: > 20 µM |
| CC(C)Nc1c(-c2ccccn2)nc2cc(C(F)(F)F)ccn12 [Compound 3f, N-(Propan-2-yl)-2-(pyridin-2-yl)-7-(trifluoromethyl)imidazo[1,2-a]pyridin-3-amine] | – | – | – | > 20 | 53 | – |
| COc1ccn2c(Nc3ccccc3F)c(-c3cccnc3)nc2c1 [Compound 3g, N-(2-fluorophenyl)-7-methoxy-2-(pyridin-3-yl)imidazo[1,2-a]pyridin-3-amine] | – | – | – | > 20 | 64 | – |
| COc1ccn2c(NC(=O)c3ccccc3F)c(-c3ccccn3)nc2c1 [Compound 3h, 2-Fluoro-N-[7-methoxy-2-(pyridin-2-yl)imidazo[1,2-a]pyridin-3-yl]benzamide] | – | – | – | > 20 | 64 | – |
| COc1ccn2c(Nc3ccccc3F)c(-c3ncccn3)nc2c1 [Compound 3i, N-(2-Fluorophenyl)-7-methoxy-2-(pyrimidin-2-yl)imidazo[1,2-a]pyridin-3-amine] | – | – | – | > 20 | 49 | – |
| COc1ccn2c(Nc3ccccc3F)c(-c3ccncn3)nc2c1 [Compound 3j] | – | – | – | > 20 | 46 | – |
| COc1ccn2c(NC(=O)c3ccc(F)cn3)c(-c3ccccn3)nc2c1 [Compound 3k, 5-Fluoro-N-[7-methoxy-2-(pyridin-2-yl)imidazo[1,2-a]pyridin-3-yl]pyridine-2-carboxamide] | – | – | – | > 20 | 64 | – |
| COc1ccn2c(NC(=O)c3cccc(F)c3)c(-c3ccccn3)nc2c1 [Compound 3l, 3-Fluoro-N-[7-methoxy-2-(pyridin-2-yl)imidazo[1,2-a]pyridin-3-yl]benzamide] | – | – | – | > 20 | 59 | – |
| O=C(N[C@H](CO)c1ccccc1)c1cc(-c2c[nH]c3ncccc23)[nH]n1 [Compound S12, (S)-N-(2-Hydroxy-1-phenylethyl)-5-(1H-pyrrolo[2,3-b]pyridin-3-yl)-1H-pyrazole-3-carboxamide] | – | – | – | > 20 | – | MRC5 TC50 ± Standard Deviation ([5]; in µM): 42 ± 7.7; EC50 [3, 13]: > 20 µM; L6 TC50 ± Standard Deviation [6]: > 17; EC50 [4, 14]: > 20 µM; THP-1 TC50 ± Standard Deviation [7]: 42 ± 11 |
| O=C(N[C@H](CO)c1ccccc1)c1ccc(-c2c[nH]c3ncccc23)nc1 [Compound S15, (S)-N-(2-Hydroxy-1-phenylethyl)-6-(1H-pyrrolo[2,3-b]pyridin-3-yl)nicotinamide] | – | – | – | > 20 | – | MRC5 TC50 ± Standard Deviation ([5]; in µM): > 50; EC50 [3, 13]: > 20 µM; L6 TC50 ± Standard Deviation [6]: > 50; EC50 [4, 14]: > 20 µM; THP-1 TC50 ± Standard Deviation [7]: 26 ± 2.0 |
| CN(C)S(=O)(=O)c1ccc(N/N=C2\C(=O)Nc3ccccc32)cc1 [Compound S30] | – | > 20 | – | – | – | MRC5 TC50 ± Standard Deviation ([5]; in µM): > 50; EC50 [3, 13]: > 20 µM; EC50 [4, 14]: > 20 µM; THP-1 TC50 ± Standard Deviation [7]: > 50 |
